Article PMC2219267 (The Journal of General Physiology, 1996)

Biological target: T1, band 3 (Homo sapiens, UniProt P02730)
T1 sequence (P02730 1-911): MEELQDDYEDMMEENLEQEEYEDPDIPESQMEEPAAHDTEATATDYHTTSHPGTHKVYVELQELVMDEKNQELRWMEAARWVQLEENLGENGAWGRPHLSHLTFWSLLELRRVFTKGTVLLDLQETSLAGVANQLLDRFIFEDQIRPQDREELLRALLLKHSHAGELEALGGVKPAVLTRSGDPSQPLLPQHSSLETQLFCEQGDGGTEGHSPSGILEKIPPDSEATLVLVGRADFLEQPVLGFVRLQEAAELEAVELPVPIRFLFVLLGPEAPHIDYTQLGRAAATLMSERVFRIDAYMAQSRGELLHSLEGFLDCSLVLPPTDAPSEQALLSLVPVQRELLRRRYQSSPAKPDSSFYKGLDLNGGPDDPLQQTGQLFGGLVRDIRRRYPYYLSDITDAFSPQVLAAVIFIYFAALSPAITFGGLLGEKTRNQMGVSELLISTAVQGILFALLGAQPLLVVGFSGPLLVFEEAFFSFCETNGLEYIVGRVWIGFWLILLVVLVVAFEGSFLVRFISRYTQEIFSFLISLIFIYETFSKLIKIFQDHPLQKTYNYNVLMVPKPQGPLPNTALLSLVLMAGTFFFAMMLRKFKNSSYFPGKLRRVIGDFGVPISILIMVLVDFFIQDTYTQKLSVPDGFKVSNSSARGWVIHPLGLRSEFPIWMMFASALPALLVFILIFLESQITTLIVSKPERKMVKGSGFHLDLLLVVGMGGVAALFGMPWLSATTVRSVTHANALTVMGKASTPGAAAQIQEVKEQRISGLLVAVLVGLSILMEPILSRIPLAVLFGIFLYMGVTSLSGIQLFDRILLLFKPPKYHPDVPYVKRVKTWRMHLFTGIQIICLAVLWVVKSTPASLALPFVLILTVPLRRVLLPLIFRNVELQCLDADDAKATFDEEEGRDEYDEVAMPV
Assay: 36Cl exchange flux inhibition in red blood cells, Dixon plots
Type: cell-based
Conditions: for ID50 for iodide in the medium with low Cl- concentration: 0°C; for DS·Clo (Dixon slope times [Clo]) / Dixon slope (DS) for Io inhibition of Cl- exchange / High/low: DS·Clo at the highest [Clo] divided by that at the given [Clo]: sucrose

## [I-].[K+] [iodide, potassium iodide]
Exp 60, pHo 7.2, Hepes, Cli 129 mM, low Clo 2.0 mM
  ID50 for iodide in the medium with low Cl- concentration: 2.77 mM
Exp 60, pHo 7.2, Clo 2 mM
  DS·Clo (Dixon slope times [Clo]): 0.0823
  Dixon slope (DS) for Io inhibition of Cl- exchange: 0.0412
  High/low: DS·Clo at the highest [Clo] divided by that at the given [Clo]: 4.69
Exp 60, pHo 7.2, Clo 150 mM
  DS·Clo (Dixon slope times [Clo]): 0.386
  Dixon slope (DS) for Io inhibition of Cl- exchange: 0.00257
Exp 60, pHo 10.7, CHES, Cli 129 mM, low Clo 2.0 mM
  ID50 for iodide in the medium with low Cl- concentration: 12.9 mM
Exp 60, pHo 10.7, Clo 2 mM
  DS·Clo (Dixon slope times [Clo]): 0.1169
  Dixon slope (DS) for Io inhibition of Cl- exchange: 0.0584
  High/low: DS·Clo at the highest [Clo] divided by that at the given [Clo]: 1.79
Exp 60, pHo 10.7, Clo 150 mM
  DS·Clo (Dixon slope times [Clo]): 0.2096
  Dixon slope (DS) for Io inhibition of Cl- exchange: 0.0014
Exp 60a, pHo 7.2, Hepes, Cli 149 mM, low Clo 1.0 mM
  ID50 for iodide in the medium with low Cl- concentration: 2.44 mM
Exp 60a, pHo 7.2, Clo 1 mM
  DS·Clo (Dixon slope times [Clo]): 0.0509
  Dixon slope (DS) for Io inhibition of Cl- exchange: 0.0509
  High/low: DS·Clo at the highest [Clo] divided by that at the given [Clo]: 6.67
Exp 60a, pHo 7.2, Clo 150 mM
  DS·Clo (Dixon slope times [Clo]): 0.339
  Dixon slope (DS) for Io inhibition of Cl- exchange: 0.00226
Exp 60a, pHo 10.7, CHES, Cli 149 mM, low Clo 2.0 mM
  ID50 for iodide in the medium with low Cl- concentration: 22.6 mM
Exp 60a, pHo 10.7, Clo 2 mM
  DS·Clo (Dixon slope times [Clo]): 0.1078
  Dixon slope (DS) for Io inhibition of Cl- exchange: 0.0539
  High/low: DS·Clo at the highest [Clo] divided by that at the given [Clo]: 2.13
Exp 60a, pHo 10.7, Clo 150 mM
  DS·Clo (Dixon slope times [Clo]): 0.2300
  Dixon slope (DS) for Io inhibition of Cl- exchange: 0.00153
Exp 61, pHo 11.6, CAPS, Cli 131 mM, low Clo 50 mM
  ID50 for iodide in the medium with low Cl- concentration: 34.9 mM
Exp 61, pHo 11.6, Clo 50 mM
  DS·Clo (Dixon slope times [Clo]): 0.2858
  Dixon slope (DS) for Io inhibition of Cl- exchange: 0.00572
  High/low: DS·Clo at the highest [Clo] divided by that at the given [Clo]: 0.94
Exp 61, pHo 11.6, Clo 150 mM
  DS·Clo (Dixon slope times [Clo]): 0.2682
  Dixon slope (DS) for Io inhibition of Cl- exchange: 0.00179
Exp 61a, pHo 11.6, CAPS, Cli 144 mM, low Clo 28 mM
  ID50 for iodide in the medium with low Cl- concentration: 46.6 mM
Exp 61a, pHo 11.6, Clo 27.5 mM
  DS·Clo (Dixon slope times [Clo]): 0.2089
  Dixon slope (DS) for Io inhibition of Cl- exchange: 0.0076
  High/low: DS·Clo at the highest [Clo] divided by that at the given [Clo]: 0.77
Exp 61a, pHo 11.6, Clo I10 mM
  DS·Clo (Dixon slope times [Clo]): 0.1613
  Dixon slope (DS) for Io inhibition of Cl- exchange: 0.00147
Exp 64, pHo 8.66, CHES, Cli 138 mM, low Clo 0.9 mM
  ID50 for iodide in the medium with low Cl- concentration: 3.06 mM
Exp 64, pHo 9.9, CHES, Cli 138 mM, low Clo 2.2 mM
  ID50 for iodide in the medium with low Cl- concentration: 7.48 mM
Exp 64a, pHo 8.66, CHES, Cli 137 mM, low Clo 0.9 mM
  ID50 for iodide in the medium with low Cl- concentration: 2.24 mM
Exp 64a, pHo 9.9, CHES, Cli 137 mM, low Clo 2.2 mM
  ID50 for iodide in the medium with low Cl- concentration: 7.57 mM
Exp 67, pHo 8.5, CHES, Cli 144 mM, low Clo 0.6 mM
  ID50 for iodide in the medium with low Cl- concentration: 2.18 mM
Exp 70, pHo 7.2, Hepes, Cli 147 mM, low Clo 0.6 mM
  ID50 for iodide in the medium with low Cl- concentration: 1.47 mM
Exp 70, pHo 7.2, Clo 0.59 mM
  DS·Clo (Dixon slope times [Clo]): 0.0584
  Dixon slope (DS) for Io inhibition of Cl- exchange: 0.0996
  High/low: DS·Clo at the highest [Clo] divided by that at the given [Clo]: 5.52
Exp 70, pHo 7.2, Clo 110 mM
  DS·Clo (Dixon slope times [Clo]): 0.322
  Dixon slope (DS) for Io inhibition of Cl- exchange: 0.00293
Exp 70, pHo 8.5, CHES, Cli 147 mM, low Clo 0.6 mM
  ID50 for iodide in the medium with low Cl- concentration: 1.82 mM
Exp 72, pHo 8.0, Hepes, Cli 129 mM, low Clo 0.9 mM
  ID50 for iodide in the medium with low Cl- concentration: 1.82 mM
Exp 72, pHo 9.2, CHES, Cli 129 mM, low Clo 0.9 mM
  ID50 for iodide in the medium with low Cl- concentration: 4.19 mM
Exp 74, pHo 8.5, CHES, Cli 156 mM, low Clo 1.1 mM
  ID50 for iodide in the medium with low Cl- concentration: 2.10 mM
Exp 80, pHo 9.2, CHES, Cli 142 mM, low Clo 0.9 mM
  ID50 for iodide in the medium with low Cl- concentration: 3.88 mM
Exp 81, pHo 8.5, Hepes, Cli 142 mM, low Clo 0.6 mM
  ID50 for iodide in the medium with low Cl- concentration: 2.31 mM
Exp 81, pHo 10, CHES, Cli 142 mM, low Clo 1.7 mM
  ID50 for iodide in the medium with low Cl- concentration: 7.81 mM
Exp 82, pHo 10, CHES, Cli 138 mM, low Clo 1.7 mM
  ID50 for iodide in the medium with low Cl- concentration: 9.85 mM
Exp 82, pHo 10.6, CHES, Cli 138 mM, low Clo 1.7 mM
  ID50 for iodide in the medium with low Cl- concentration: 19.8 mM
Exp 83, pHo 10, CHES, Cli 129 mM, low Clo 1.7 mM
  ID50 for iodide in the medium with low Cl- concentration: 6.58 mM
Exp 84, pHo 8.0, Hepes, Cli 130 mM, low Clo 0.9 mM
  ID50 for iodide in the medium with low Cl- concentration: 2.05 mM
